The results in this text go back to ChEMBL document CHEMBL1158259, “Tonkinecin, a novel bioactive annonaceous acetogenin from Uvaria tonkinesis” (J Nat Prod, 1996).

Common to all, as to type: functional, cell-based
Test [1] in a line: Cytotoxicity against human BGC cells after 5 days by MTT assay. The following applies: 120 h.
Test [2] relates to HL-60. The test can be described thus: Cytotoxicity against human HL60 cells after 5 days by MTT assay. The following applies: HL-60, 120 h.
Test [3] relates to HCT-8. The test can be described thus: Cytotoxicity against human HCT8 cells after 5 days by MTT assay. The settings on record: HCT-8, 120 h.
The test system of test [4] is Bel-7402. The test can be described thus: Cytotoxicity against human Bel7402 cells after 5 days by MTT assay. The settings on record: Bel-7402, 120 h.

Take `CCCCCCCCCCCC[C@@H](O)[C@H]1CC[C@H]([C@H](O)CCCCCCCCCCC[C@H](O)CCC2=C[C@H](C)OC2=O)O1` [TONKINECIN]: the IC50 in test [1] is 5100 nM; in test [2] it was 520 nM; in test [3] it was 380 nM; in test [4] it was 1500 nM.

On to `COc1cc([C@@H]2c3cc4c(cc3[C@@H](O[C@@H]3O[C@@H]5CO[C@@H](C)O[C@H]5[C@H](O)[C@H]3O)[C@H]3COC(=O)[C@H]23)OCO4)cc(OC)c1O` [ETOPOSIDE], for which the IC50 in test [1] amounted to 6700 nM; in test [2] it was 160 nM; in test [3], 6400 nM; in test [4], 1900 nM.
